Test results as given in the supplement of paper PMC10627819.

Legend:
B. subtilis 168 [1] = assay: fitness (endpoint OD595 vs no drug) (fraction); higher = more growth
How it was run: (§1)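 Each well of a 384-well plate received 30 µl of culture at OD595 0.01, or 55 µl for S. pneumoniae. TSB, LB Lennox or CY served as media at 37 °C. OD595 was taken every 30 min for 14 h and corrected by subtracting the first reading. Fitness is the optical density at stationary-phase entry divided by the robust mean of no-drug controls, capped at 1.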

S. aureus Newman [2] = assay: as above; conditions: one replicate
How it was run: as §1

B. subtilis 168 [3] = assay: Bliss interaction score (quartile over a dose matrix) (fitness difference); higher = more antagonism (negative = synergy)
How it was run: (§2)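 Growth was read as OD595 when cultures entered stationary phase, and each value was divided by the plate's robust no-drug mean and capped at 1. This normalised ratio is the fitness value, and fitness for each single drug came from the combination data. The Bliss score subtracts the expected fitness, taken as the product, from the observed fitness and is given as quartiles across technical, biological and donor/recipient replicates.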

S. aureus DSM 20231 = assay: as above
How it was run: as §2

S. aureus Newman [4] = assay: as above
How it was run: as §2

S. pneumoniae D39V [5] = assay: as above
How it was run: as §2

S. pneumoniae D39V [6] = assay: fitness (endpoint OD595 vs no drug) (fraction); higher = more growth
How it was run: as §1
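Wherever Bliss interaction score (quartile over a dose matrix) is given: first quartile when negative (synergy) and third quartile when positive (antagonism).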

CO/N=C(\C(=O)N[C@@H]1C(=O)N2C(C(=O)O)=C(COC(N)=O)CS[C@H]12)c1ccco1 [Cefuroxime] + CC(C1CCC(C(O1)OC2C(CC(C(C2O)OC3C(C(C(CO3)(C)O)NC)O)N)N)N)NC [Gentamicin]
fitness, main component drawn
Conditions | first compound 0.04875 µg/mL | first compound 0.0975 µg/mL | first compound 0.195 µg/mL
B. subtilis 168 [1], partner 0.0625 µg/mL | 0.708 | 0.675 | 0.587
B. subtilis 168 [1], partner 0.125 µg/mL | – | 0.379 | 0.0507
B. subtilis 168 [1], partner 0.25 µg/mL | 0.0653 | 0.0449 | 0.0518
S. aureus Newman [2], partner 1 µg/mL | 0.937 | 0.923 | 0.942
S. aureus Newman [2], partner 2 µg/mL | 0.867 | 0.723 | 0.628
S. aureus Newman [2], partner 4 µg/mL | 0.0568 | 0.0486 | 0.0654

fitness, B. subtilis 168 [1], one replicate, main component drawn
Conditions | first compound 0.39 µg/mL | first compound 0.78 µg/mL | first compound 1.562 µg/mL | first compound 3.125 µg/mL | first compound 6.25 µg/mL
partner 0.0625 µg/mL | 0.6 | 0.549 | 0.249 | 0.0632 | 0.0658
partner 0.125 µg/mL | 0.202 | 0.142 | 0.0288 | 0.0271 | 0.0297
partner 0.25 µg/mL | 0.152 | 0.0935 | 0.0323 | 0.029 | 0.0215

main component drawn
Conditions | Bliss interaction score
B. subtilis 168 [3] | 0.0914
S. aureus DSM 20231 | -0.313
S. aureus Newman [4] | -0.165
S. pneumoniae D39V [5] | -0.0232

CO/N=C(\C(=O)N[C@@H]1C(=O)N2C(C(=O)O)=C(COC(N)=O)CS[C@H]12)c1ccco1 [Cefuroxime] + COc1cccc2c1C(=O)c1c(O)c3c(c(O)c1C2=O)C[C@@](O)(C(=O)CO)C[C@@H]3O[C@H]1C[C@H](N)[C@H](O)[C@H](C)O1 [Doxorubicin]
fitness
Conditions | first compound 0.04875 µg/mL | first compound 0.0975 µg/mL | first compound 0.195 µg/mL
B. subtilis 168 [1], partner 0.625 µg/mL | 0.667 | 0.575 | 0.343
B. subtilis 168 [1], partner 1.25 µg/mL | 0.63 | 0.528 | 0.288
B. subtilis 168 [1], partner 2.5 µg/mL | 0.371 | 0.293 | 0.025
S. aureus Newman [2], partner 0.625 µg/mL | 0.891 | 0.873 | 0.784
S. aureus Newman [2], partner 1.25 µg/mL | 0.854 | 0.753 | 0.682
S. aureus Newman [2], partner 2.5 µg/mL | 0.735 | 0.617 | 0.659

fitness, B. subtilis 168 [1], one replicate
Conditions | first compound 0.39 µg/mL | first compound 0.78 µg/mL | first compound 1.562 µg/mL | first compound 3.125 µg/mL | first compound 6.25 µg/mL
partner 0.625 µg/mL | 0.264 | 0.272 | 0.365 | 0.208 | 0.142
partner 1.25 µg/mL | 0.25 | 0.17 | 0.0862 | 0.0711 | 0.0435
partner 2.5 µg/mL | 0.018 | 0.0243 | 0.0327 | 0.0359 | 0.0405

Conditions | Bliss interaction score
B. subtilis 168 [3] | -0.158
S. aureus DSM 20231 | 0.0859
S. aureus Newman [4] | -0.0601
S. pneumoniae D39V [5] | -0.0401

CO/N=C(\C(=O)N[C@@H]1C(=O)N2C(C(=O)O)=C(COC(N)=O)CS[C@H]12)c1ccco1 [Cefuroxime] + COc1ccc(C[C@H](N)C(=O)N[C@H]2[C@@H](O)[C@H](n3cnc4c(N(C)C)ncnc43)O[C@@H]2CO)cc1 [Puromycin]
fitness
Conditions | first compound 0.04875 µg/mL | first compound 0.0975 µg/mL | first compound 0.195 µg/mL
B. subtilis 168 [1], partner 0.39 µg/mL | 0.758 | 0.65 | 0.551
B. subtilis 168 [1], partner 0.78 µg/mL | 0.787 | 0.705 | 0.539
B. subtilis 168 [1], partner 1.56 µg/mL | 0.772 | 0.678 | 0.586
S. aureus Newman [2], partner 0.39 µg/mL | 0.925 | 0.95 | 0.938
S. aureus Newman [2], partner 0.78 µg/mL | 0.969 | 0.945 | 0.956
S. aureus Newman [2], partner 1.56 µg/mL | 0.951 | 0.98 | 0.983

fitness, B. subtilis 168 [1], one replicate
Conditions | first compound 1.562 µg/mL | first compound 3.125 µg/mL | first compound 6.25 µg/mL
partner 0.39 µg/mL | 0.348 | 0.268 | 0.25
partner 0.78 µg/mL | 0.369 | 0.288 | 0.286
partner 1.56 µg/mL | 0.362 | 0.312 | 0.253

Conditions | Bliss interaction score
B. subtilis 168 [3] | 0.1
S. aureus DSM 20231 | 0.127
S. aureus Newman [4] | 0.0321
S. pneumoniae D39V [5] | 0.0887

O=C(O)c1cn(C2CC2)c2cc(N3CCNCC3)c(F)cc2c1=O [Ciprofloxacin] + C/C(=C\C(=O)OCCCCCCCCC(=O)O)C[C@@H]1OC[C@H](C[C@@H]2O[C@H]2[C@@H](C)[C@H](C)O)[C@@H](O)[C@H]1O [Pseudomonic acid]
Conditions | fitness
S. aureus Newman [2], first compound 0.078 µg/mL, partner 0.0313 µg/mL | 0.0919
S. aureus Newman [2], first compound 0.078 µg/mL, partner 0.0625 µg/mL | 0.052
S. aureus Newman [2], first compound 0.078 µg/mL, partner 0.125 µg/mL | 0.0642
S. aureus Newman [2], first compound 0.156 µg/mL, partner 0.0313 µg/mL | 0.0675
S. aureus Newman [2], first compound 0.156 µg/mL, partner 0.0625 µg/mL | 0.0404
S. aureus Newman [2], first compound 0.156 µg/mL, partner 0.125 µg/mL | 0.0505
S. aureus Newman [2], first compound 0.312 µg/mL, partner 0.0313 µg/mL | 0.0586
S. aureus Newman [2], first compound 0.312 µg/mL, partner 0.0625 µg/mL | 0.0324
S. aureus Newman [2], first compound 0.312 µg/mL, partner 0.125 µg/mL | 0.0607
S. pneumoniae D39V [6], first compound 0.125 µg/mL, partner 0.03 µg/mL | 0.92
S. pneumoniae D39V [6], first compound 0.125 µg/mL, partner 0.06 µg/mL | 0.828
S. pneumoniae D39V [6], first compound 0.125 µg/mL, partner 0.12 µg/mL | 0.444
S. pneumoniae D39V [6], first compound 0.25 µg/mL, partner 0.03 µg/mL | 0.877
S. pneumoniae D39V [6], first compound 0.25 µg/mL, partner 0.06 µg/mL | 0.742
S. pneumoniae D39V [6], first compound 0.25 µg/mL, partner 0.12 µg/mL | 0.551
S. pneumoniae D39V [6], first compound 0.5 µg/mL, partner 0.12 µg/mL | 0.393

Conditions | Bliss interaction score
B. subtilis 168 [3] | 0.0413
S. aureus DSM 20231 | 0.0149
S. aureus Newman [4] | 0.0616
S. pneumoniae D39V [5] | 0.0559

Cc1ncc([N+](=O)[O-])n1CCO [Metronidazole] + C/C(=C\C(=O)OCCCCCCCCC(=O)O)C[C@@H]1OC[C@H](C[C@@H]2O[C@H]2[C@@H](C)[C@H](C)O)[C@@H](O)[C@H]1O [Pseudomonic acid]
fitness
Conditions | first compound 0.625 µg/mL | first compound 1.073 µg/mL | first compound 1.25 µg/mL | first compound 2.145 µg/mL | first compound 2.5 µg/mL | first compound 4.29 µg/mL | first compound 5 µg/mL
S. aureus Newman [2], partner 0.0313 µg/mL | 0.0517 | – | 0.0718 | – | 0.0759 | – | –
S. aureus Newman [2], partner 0.0625 µg/mL | 0.0386 | – | 0.0347 | – | 0.0304 | – | –
S. aureus Newman [2], partner 0.125 µg/mL | 0.0386 | – | 0.0514 | – | 0.0492 | – | –
S. pneumoniae D39V [6], partner 0.03 µg/mL | – | 0.903 | 0.932 | 0.859 | 0.96 | 0.877 | 0.92
S. pneumoniae D39V [6], partner 0.06 µg/mL | – | – | 0.816 | – | 0.829 | 0.81 | 0.816
S. pneumoniae D39V [6], partner 0.12 µg/mL | – | 0.529 | 0.57 | 0.632 | 0.596 | 0.575 | 0.588

Conditions | Bliss interaction score
B. subtilis 168 [3] | -0.0197
S. aureus DSM 20231 | 0.0111
S. aureus Newman [4] | 0.0128
S. pneumoniae D39V [5] | 0.0684
